pEC50: −log10 of the molar value.
Key:
[1] = antirhinoviral activity against HRV Protease 3CP (serotype 1A)
[2] = antirhinoviral activity against HRV Protease 3CP (serotype 10)
[3] = antirhinoviral activity against Human Rhinovirus Protease 3C (serotype 14)
[4] = antirhinoviral activity against Human Rhinovirus Protease 3C (serotype 10)
[5] = antirhinoviral activity against Human Rhinovirus Protease 3C (serotype 1A)
[6] = antirhinoviral activity against HRV Protease 3CP (serotype 2)
[7] = antirhinoviral activity against HRV Protease 3CP (serotype 9)
[8] = antirhinoviral activity against HRV Protease 3CP (serotype 3)
[9] = antirhinoviral activity against HRV Protease 3CP (serotype 16)
[10] = antirhinoviral activity against HRV Protease 3CP (serotype 19)
[11] = antirhinoviral activity against HRV Protease 3CP (serotype 1A); remark: listed apart in the source
[12] = antirhinoviral activity against HRV Protease 3CP (serotype 11)
[13] = antirhinoviral activity against HRV Protease 3CP (serotype 78)
[14] = antirhinoviral activity against HRV Protease 3CP (serotype 14)
[15] = antirhinoviral activity against HRV Protease 3CP (serotype 39)
[16] = antirhinoviral activity against HRV Protease 3CP (serotype 23)
[17] = antirhinoviral activity against HRV Protease 3CP (serotype 25)
[18] = antirhinoviral activity against HRV Protease 3CP (serotype 10); remark: listed apart in the source
[19] = antirhinoviral activity against HRV Protease 3CP (serotype 13)
[20] = antirhinoviral activity against HRV Protease 3CP (serotype Hanks)

SMILES: CCOC(=O)/C=C/[C@H](CCC(N)=O)NC(=O)[C@H](Cc1ccc(F)c(F)c1)n1cccc(NC(=O)OCc2ccccc2)c1=O [4-[2-(3-Benzyloxycarbonylamino-2-oxo-2H-pyridin-1-yl)-3-(3,4-difluoro-phenyl)-propionylamino]-6-carbamoyl-hex-2-enoic acid ethyl ester]
- pEC50 [1]: 6.29
- pEC50 [2]: 7.49

SMILES: CCOC(=O)/C=C/[C@H](CCC(N)=O)NC(=O)[C@H](Cc1ccccc1)n1cccc(NC(=O)OCc2ccccc2)c1=O [(E)-(S)-4-[(S)-2-(3-Benzyloxycarbonylamino-2-oxo-2H-pyridin-1-yl)-3-phenyl-propionylamino]-6-carbamoyl-hex-2-enoic acid ethyl ester]
- pEC50 [3]: 7.48
- pEC50 [4]: 6.43
- pEC50 [5]: 5.90

SMILES: CCOC(=O)/C=C/[C@H](CCC(N)=O)NC(=O)[C@H](Cc1ccc(F)cc1)n1cccc(NC(=O)OCc2ccccc2)c1=O [4-[2-(3-Benzyloxycarbonylamino-2-oxo-2H-pyridin-1-yl)-3-(4-fluoro-phenyl)-propionylamino]-6-carbamoyl-hex-2-enoic acid ethyl ester]
- pEC50 [1]: 6.22
- pEC50 [2]: 6.95

SMILES: Cc1cc(C(=O)Nc2cccn([C@@H](Cc3ccc(F)c(F)c3)C(=O)N[C@H](/C=C/C(=O)OC(C)C)C[C@@H]3CCNC3=O)c2=O)no1 [(1S,5S)-4-((S)-3-(3,4-Difluoro-phenyl)-2-{3-[(5-methyl-isoxazole-3-carbonyl)-amino]-2-oxo-2H-pyridin-1-yl}-propionylamino)-5-(2-oxo-pyrrolidin-3-yl)-pent-2-enoic acid isopropyl ester]
- pEC50 [6]: 7.32
- pEC50 [7]: 6.96
- pEC50 [8]: 7.48
- pEC50 [9]: 7.44
- pEC50 [10]: 8.05
- pEC50 [11]: 6.88
- pEC50 [12]: 8.52
- pEC50 [13]: 7.92
- pEC50 [14]: 8.52
- pEC50 [15]: 7.36
- pEC50 [16]: 8.00
- pEC50 [17]: 7.00
- pEC50 [18]: 7.07
- pEC50 [19]: 7.36
- pEC50 [20]: 8.52

SMILES: CCOC(=O)/C=C/[C@H](C[C@@H]1CCNC1=O)NC(=O)[C@H](Cc1ccccc1)n1cccc(NC(=O)OCc2ccccc2)c1=O [4-[2-(3-Benzyloxycarbonylamino-2-oxo-2H-pyridin-1-yl)-3-phenyl-propionylamino]-5-(2-oxo-pyrrolidin-3-yl)-pent-2-enoic acid ethyl ester]
- pEC50 [14]: 8.52

SMILES: CCOC(=O)/C=C/[C@H](CCC(N)=O)NC(=O)[C@H](Cc1ccccc1)n1cccc(NC(=O)C2SCCS2)c1=O [6-Carbamoyl-4-(2-{3-[([1,3]dithiolane-2-carbonyl)-amino]-2-oxo-2H-pyridin-1-yl}-3-phenyl-propionylamino)-hex-2-enoic acid ethyl ester]
- pEC50 [1]: 5.93
- pEC50 [2]: 5.85

SMILES: CCOC(=O)/C=C/[C@H](C[C@@H]1CCNC1=O)NC(=O)[C@H](Cc1ccc(F)c(F)c1)n1cccc(NC(=O)c2cc(C)on2)c1=O [(1S,5S)-4-((S)-3-(3,4-Difluoro-phenyl)-2-{3-[(5-methyl-isoxazole-3-carbonyl)-amino]-2-oxo-2H-pyridin-1-yl}-propionylamino)-5-(2-oxo-pyrrolidin-3-yl)-pent-2-enoic acid ethyl ester]
- pEC50 [1]: 8.22
- pEC50 [2]: 8.30

SMILES: CCOC(=O)/C=C/[C@H](C[C@@H]1CCNC1=O)NC(=O)[C@H](Cc1ccc(F)cc1)n1cccc(NC(=O)c2cc(C)on2)c1=O [4-(3-(4-Fluoro-phenyl)-2-{3-[(5-methyl-isoxazole-3-carbonyl)-amino]-2-oxo-2H-pyridin-1-yl}-propionylamino)-5-(2-oxo-pyrrolidin-3-yl)-pent-2-enoic acid ethyl ester]
- pEC50 [1]: 7.82
- pEC50 [2]: 8.40

From BindingDB's records for doi:10.1021/jm010469k (Agouron Pharmaceuticals, 2002)
